Test results from paper PMC10178848, “Modulating fast skeletal muscle contraction protects skeletal muscle in animal models of Duchenne muscular dystrophy” (The Journal of Clinical Investigation, 2023).
Read-outs that look alike come from different tables or passages of the source.

What was measured:
BRAF(V600E) = molecular target: T1, BRAF(V600E) (Homo sapiens, UniProt P15056, V600E); test: KINOMEscan scanEDGE; type: binding; settings: 20 uM
T1 construct: purchased Eurofins DiscoverX (KINOMEscan; SAFETYscan E/IC50 ELECT)
T1 sequence (P15056 whole entry V600E): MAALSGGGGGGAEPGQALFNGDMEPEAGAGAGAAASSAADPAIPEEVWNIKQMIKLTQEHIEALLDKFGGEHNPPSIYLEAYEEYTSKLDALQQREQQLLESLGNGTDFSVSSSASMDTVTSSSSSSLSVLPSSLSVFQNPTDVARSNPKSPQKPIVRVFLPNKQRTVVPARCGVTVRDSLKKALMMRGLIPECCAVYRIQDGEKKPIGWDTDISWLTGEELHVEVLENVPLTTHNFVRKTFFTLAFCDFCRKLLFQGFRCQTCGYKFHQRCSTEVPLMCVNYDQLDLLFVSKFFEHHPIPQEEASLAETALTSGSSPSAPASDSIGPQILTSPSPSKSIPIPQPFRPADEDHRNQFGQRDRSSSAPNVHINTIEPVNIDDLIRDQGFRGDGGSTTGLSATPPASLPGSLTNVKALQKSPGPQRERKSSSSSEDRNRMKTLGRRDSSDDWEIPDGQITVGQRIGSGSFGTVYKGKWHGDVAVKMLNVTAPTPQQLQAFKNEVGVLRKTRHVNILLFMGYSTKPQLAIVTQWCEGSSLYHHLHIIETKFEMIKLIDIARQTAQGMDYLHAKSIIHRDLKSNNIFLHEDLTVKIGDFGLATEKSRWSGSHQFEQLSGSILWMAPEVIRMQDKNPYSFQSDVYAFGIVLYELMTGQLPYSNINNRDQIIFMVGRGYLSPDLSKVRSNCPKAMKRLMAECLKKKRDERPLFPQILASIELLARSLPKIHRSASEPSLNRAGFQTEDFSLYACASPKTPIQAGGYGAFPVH

mdx EDL muscle = test: Procion orange dye uptake after eccentric contraction; parameters: species or system mouse
Description: For procion imaging, injury protocols were performed in 1% procion MX Dye (020 Brilliant Orange, Jacquard Products) and fixed in cold 4% paraformaldehyde and then cold 30% sucrose/PBS before cryosection. Laminin immunohistochemistry used rabbit polyclonal (L9393, Sigma-Aldrich, 1:20) and chicken anti-rabbit Alexa Fluor 488 (Invitrogen, 1:500). Slides were scanned at ×20 with Nikon Te-2000 dark-field microscopy and analyzed with Imaris software (Bitplane AG). Imaris’ surface component algorithm was used to detect procion-labeled fiber boundaries. Nonspecific procion staining of the peripheral tendon and outer layer of cells (where handling could cause injury) was excluded by applying a size and location filter (>2× average fiber size and located adjacent to laminin-positive fibers at the edge of the muscle). Each fiber was identified with an ID and color coded before calculation.

INSR = molecular target: T2, INSR (Homo sapiens, UniProt P06213); test: KINOMEscan scanEDGE; type: binding; settings: 20 uM
T2 construct: purchased Eurofins DiscoverX (KINOMEscan; SAFETYscan E/IC50 ELECT)
T2 sequence (P06213 28-1382): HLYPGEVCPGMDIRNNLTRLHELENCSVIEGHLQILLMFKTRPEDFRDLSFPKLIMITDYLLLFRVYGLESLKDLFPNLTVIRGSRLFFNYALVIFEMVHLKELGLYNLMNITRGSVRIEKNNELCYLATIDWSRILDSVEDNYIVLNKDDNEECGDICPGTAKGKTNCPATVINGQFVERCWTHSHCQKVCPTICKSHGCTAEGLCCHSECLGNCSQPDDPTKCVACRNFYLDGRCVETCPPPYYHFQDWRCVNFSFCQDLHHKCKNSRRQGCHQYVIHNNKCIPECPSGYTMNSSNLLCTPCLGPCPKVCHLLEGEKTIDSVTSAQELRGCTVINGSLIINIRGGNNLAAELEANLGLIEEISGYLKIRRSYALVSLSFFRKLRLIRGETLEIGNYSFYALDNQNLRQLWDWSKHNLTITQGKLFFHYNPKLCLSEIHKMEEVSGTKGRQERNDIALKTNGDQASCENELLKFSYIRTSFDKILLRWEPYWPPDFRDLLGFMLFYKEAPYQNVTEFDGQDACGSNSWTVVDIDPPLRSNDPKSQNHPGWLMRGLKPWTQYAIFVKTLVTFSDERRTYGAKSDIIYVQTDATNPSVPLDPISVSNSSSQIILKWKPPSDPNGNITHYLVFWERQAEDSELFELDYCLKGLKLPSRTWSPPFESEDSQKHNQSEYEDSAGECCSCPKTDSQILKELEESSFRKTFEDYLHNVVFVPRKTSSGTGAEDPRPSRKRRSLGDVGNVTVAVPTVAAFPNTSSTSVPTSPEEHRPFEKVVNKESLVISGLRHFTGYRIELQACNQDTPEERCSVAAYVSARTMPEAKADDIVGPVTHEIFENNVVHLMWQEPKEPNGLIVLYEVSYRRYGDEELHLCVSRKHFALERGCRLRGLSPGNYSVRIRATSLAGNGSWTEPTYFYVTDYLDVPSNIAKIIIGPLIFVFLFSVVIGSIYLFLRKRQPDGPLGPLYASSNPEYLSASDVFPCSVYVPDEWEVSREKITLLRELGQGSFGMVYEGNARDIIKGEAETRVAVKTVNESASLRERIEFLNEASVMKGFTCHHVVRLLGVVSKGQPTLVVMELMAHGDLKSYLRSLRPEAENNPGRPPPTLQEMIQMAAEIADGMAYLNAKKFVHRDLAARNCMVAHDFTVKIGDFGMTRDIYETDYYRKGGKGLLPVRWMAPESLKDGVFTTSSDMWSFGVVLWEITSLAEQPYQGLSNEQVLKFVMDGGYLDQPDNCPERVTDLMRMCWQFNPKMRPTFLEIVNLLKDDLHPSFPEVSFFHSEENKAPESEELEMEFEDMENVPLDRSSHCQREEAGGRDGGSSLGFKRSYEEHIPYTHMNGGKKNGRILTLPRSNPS

mdx lumbrical muscle = test: Ex vivo mdx lumbrical muscle contraction, calcium and clots; parameters: species or system mouse
Description: Intracellular calcium quantification and isometric injury were described previously ([31]). Lumbrical muscles were transferred to a custom-built chamber and mounted horizontally to a force transducer (model 400A, Aurora Scientific) at 25°C. Sarcomere length was adjusted to 2.5 μm by microscope. Contraction was elicited with 0.2-millisecond stimuli and injury via 1-second stimuli at 125 Hz.
For fluorescence experiments, a 75W xenon lamp was used with wavelengths selected using a diffraction grating monochromator (model DeltaRAM, Photon Technology International). Muscles were loaded with mag-fura-2 AM (10 μM in Tyrode) for 30 minutes at 25°C, excited at 344 and 375 nm (bandwidth 10 nm), and passed through a 510 nm emission filter (bandwidth 40 nm). Fluorescence responses were recorded alternately during 32 twitch contractions at 20-second intervals; background fluorescence was subtracted, and the response was averaged. High-affinity fura-2 was used to detect membrane breaches between tetanic contractions. Muscles were incubated with fura-2 AM (15 μM in Tyrode) for 30 minutes before 12 injurious contractions, separated by 1 minute with (10/s) alternating excitation wavelengths of 340 and 375 nm (bandwidth 1.25 nm) with a 510 nm emission filter (bandwidth 40 nm) and preloading background subtraction. Still and video images were captured using a digital camera (Nikon D750).

[1] = test system: mdx mouse gastrocnemius muscle; test: RNA-Seq analysis of gastrocnemius muscle; type: in vivo
Description: RNA-Seq was performed with isolated single nuclei using the 10X Genomics Chromium Single Cell 3’ Protocol, Accessories, and Kits (CG000183 Rev A). Data were then analyzed by Rosalind (https://rosalind.onramp.bio/), with a HyperScale architecture developed by OnRamp BioInformatics Inc. Data have been submitted to the Gene Expression Omnibus (GEO) database at the NIH (accession GSE227510).

AXL = molecular target: T3, AXL (Homo sapiens, UniProt P30530); test: KINOMEscan scanEDGE; type: binding; settings: 20 uM
T3 construct: purchased Eurofins DiscoverX (KINOMEscan; SAFETYscan E/IC50 ELECT)

p38-beta = molecular target: T4, p38-beta (Homo sapiens, UniProt Q15759); test: KINOMEscan scanEDGE; type: binding; settings: 20 uM
T4 construct: purchased Eurofins DiscoverX (KINOMEscan; SAFETYscan E/IC50 ELECT)
T4 sequence (Q15759 whole entry): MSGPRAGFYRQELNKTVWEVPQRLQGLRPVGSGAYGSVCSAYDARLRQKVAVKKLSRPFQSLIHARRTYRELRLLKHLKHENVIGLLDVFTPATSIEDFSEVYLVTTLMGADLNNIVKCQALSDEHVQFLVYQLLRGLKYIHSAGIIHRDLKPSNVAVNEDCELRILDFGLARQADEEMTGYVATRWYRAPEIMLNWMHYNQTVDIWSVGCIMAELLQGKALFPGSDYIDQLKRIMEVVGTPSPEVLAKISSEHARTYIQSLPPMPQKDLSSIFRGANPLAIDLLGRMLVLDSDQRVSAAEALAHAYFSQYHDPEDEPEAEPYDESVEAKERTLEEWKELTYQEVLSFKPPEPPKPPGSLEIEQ

RAF1 = molecular target: T5, RAF1 (Homo sapiens, UniProt P04049); test: KINOMEscan scanEDGE; type: binding; settings: 20 uM
T5 construct: purchased Eurofins DiscoverX (KINOMEscan; SAFETYscan E/IC50 ELECT)
T5 sequence (P04049 whole entry): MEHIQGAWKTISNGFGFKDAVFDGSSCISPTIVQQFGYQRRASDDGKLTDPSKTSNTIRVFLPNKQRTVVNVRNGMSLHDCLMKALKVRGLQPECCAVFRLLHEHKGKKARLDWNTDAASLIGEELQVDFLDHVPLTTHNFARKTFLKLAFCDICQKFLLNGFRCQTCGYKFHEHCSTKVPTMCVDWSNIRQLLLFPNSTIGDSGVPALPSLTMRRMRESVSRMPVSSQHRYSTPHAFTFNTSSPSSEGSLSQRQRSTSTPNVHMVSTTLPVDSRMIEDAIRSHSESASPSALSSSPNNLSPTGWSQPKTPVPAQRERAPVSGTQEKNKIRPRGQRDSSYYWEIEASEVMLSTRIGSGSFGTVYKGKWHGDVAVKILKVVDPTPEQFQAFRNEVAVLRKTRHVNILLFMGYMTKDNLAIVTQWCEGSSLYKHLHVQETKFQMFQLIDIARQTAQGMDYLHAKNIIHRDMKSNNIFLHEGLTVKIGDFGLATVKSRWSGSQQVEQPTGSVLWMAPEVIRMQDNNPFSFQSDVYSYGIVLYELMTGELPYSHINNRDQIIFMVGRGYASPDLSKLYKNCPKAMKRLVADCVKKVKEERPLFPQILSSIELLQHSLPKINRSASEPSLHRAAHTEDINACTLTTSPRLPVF

MEK1 = molecular target: T6, MEK1 (Homo sapiens, UniProt Q02750); test: KINOMEscan scanEDGE; type: binding; settings: 20 uM
T6 construct: purchased Eurofins DiscoverX (KINOMEscan; SAFETYscan E/IC50 ELECT)
T6 sequence (Q02750 whole entry): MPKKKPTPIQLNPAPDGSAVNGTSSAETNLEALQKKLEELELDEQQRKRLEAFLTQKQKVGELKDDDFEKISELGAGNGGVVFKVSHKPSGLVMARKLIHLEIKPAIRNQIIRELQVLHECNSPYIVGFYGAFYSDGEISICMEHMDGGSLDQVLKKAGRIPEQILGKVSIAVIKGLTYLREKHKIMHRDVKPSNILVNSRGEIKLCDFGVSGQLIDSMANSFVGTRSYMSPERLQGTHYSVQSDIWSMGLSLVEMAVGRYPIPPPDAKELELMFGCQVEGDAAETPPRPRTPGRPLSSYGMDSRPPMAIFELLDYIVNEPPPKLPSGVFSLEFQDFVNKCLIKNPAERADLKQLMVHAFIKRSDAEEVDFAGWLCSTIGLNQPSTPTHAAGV

AR = molecular target: T7, AR (Homo sapiens, UniProt P10275); test: SAFETYscan NHR Nuclear Translocation; type: cell-based; parameters: dose or concentration left out as unconfirmed
T7 construct: purchased Eurofins DiscoverX (KINOMEscan; SAFETYscan E/IC50 ELECT)
T7 sequence (P10275 whole entry): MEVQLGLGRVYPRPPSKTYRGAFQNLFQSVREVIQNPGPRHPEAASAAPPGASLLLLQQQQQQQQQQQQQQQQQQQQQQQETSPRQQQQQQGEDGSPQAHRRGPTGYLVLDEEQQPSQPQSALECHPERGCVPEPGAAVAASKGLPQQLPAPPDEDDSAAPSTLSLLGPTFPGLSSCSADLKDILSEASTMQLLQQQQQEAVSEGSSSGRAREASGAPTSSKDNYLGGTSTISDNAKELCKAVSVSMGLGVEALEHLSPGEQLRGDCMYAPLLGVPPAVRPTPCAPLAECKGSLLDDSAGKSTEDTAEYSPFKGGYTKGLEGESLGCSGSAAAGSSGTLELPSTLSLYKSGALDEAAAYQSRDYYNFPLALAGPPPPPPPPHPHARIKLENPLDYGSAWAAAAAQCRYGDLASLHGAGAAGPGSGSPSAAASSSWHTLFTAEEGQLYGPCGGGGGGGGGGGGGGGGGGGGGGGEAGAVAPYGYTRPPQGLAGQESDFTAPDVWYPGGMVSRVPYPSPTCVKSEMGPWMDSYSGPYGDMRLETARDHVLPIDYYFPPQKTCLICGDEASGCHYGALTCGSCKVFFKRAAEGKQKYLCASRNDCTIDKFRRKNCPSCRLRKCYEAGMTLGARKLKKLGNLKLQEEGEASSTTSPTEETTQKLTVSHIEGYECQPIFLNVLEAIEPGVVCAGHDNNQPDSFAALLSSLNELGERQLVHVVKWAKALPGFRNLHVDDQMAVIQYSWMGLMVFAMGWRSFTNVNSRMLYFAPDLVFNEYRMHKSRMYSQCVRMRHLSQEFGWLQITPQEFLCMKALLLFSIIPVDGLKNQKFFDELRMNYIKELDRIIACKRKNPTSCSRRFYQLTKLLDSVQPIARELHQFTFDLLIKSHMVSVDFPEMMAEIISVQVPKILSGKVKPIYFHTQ
Description: The specificity of EDG-5506 for fast skeletal myosin over other, unrelated proteins was confirmed using two off-target binding and activity screens. […] A second off-target panel (SAFETYscan E/IC50 ELECT, Eurofins DiscoverX) tested in vitro enzyme activity against 78 proteins, including GPCR, ion channel, kinases, nuclear hormone receptors, and transporters. In all assays, the IC50 of EDG-5506 was more than 10 μM (Supplemental Data File 1).

mouse TA myofibrils = test: Myofibril ATPase, mouse TA; type: biochemical; settings: mixed IIa, IIx, IIb
Human Soleus myofibrils = test: Myofibril ATPase, human soleus; type: biochemical
Description: Myofibrils were prepared from various animals and tissues: rabbit psoas muscle and porcine cardiac muscle were purchased from Pel-Freez Biologicals. Human bicep and soleus muscle were purchased from BioIVT, and neonatal rat muscle was obtained in house. All myofibrils were prepared using published methods ([21]).
A lactate dehydrogenase/pyruvate kinase enzyme-coupled system ([62]) was used to monitor ATP hydrolysis rates in various muscle preparations. Rabbit psoas myofibrils were used for high-throughput screening at pCa 6.25 at 0.25 mg/mL. A multidrop cassette (Thermo Fisher Scientific) dispensed 10 μL of the coupled enzyme system, calcium, and myofibrils to 10 μL ATP, NADH and PEP to initiate the reaction prior to reading on a plate reader (Envision, Perkin Elmer) for 10 minutes per plate at room temperature. Hits were reconfirmed, and secondary assays were used to evaluate selectivity, including bovine cardiac myofibrils (pCa 5.86) and enzyme coupled hits with a hexokinase screen (Sigma-Aldrich).

[2] = test system: mixed fast/slow mouse soleus muscle; test: Ex vivo isometric force, mouse soleus; settings: 31% type I, 60% type IIa/IIx
Description: Isometric force was measured ex vivo in mouse EDL and soleus muscle. EDL muscle eccentric injury was based on published protocols ([30]), with degree of lengthening and stimulation modified to yield a uniform drop in mdx isometric and peak force over 10 contractions. After isolation, muscle was mounted via 5-0 suture to a combination servomotor/force transducer (300C-LR, Aurora) between 2 electrodes connected to a stimulator (701C, Aurora) in Ringers solution at 27°C with continuously infused CO2/O2 gas mixture. Experiments were recorded with custom MATLAB software via a National Instruments PCIe-6321 board and 2090A BNC connector. Muscles were preincubated for 60 minutes with DMSO (final 0.1%)/compound before 10 eccentric contractions, 1 minute apart, with 100 milliseconds of isometric stimulation at 100 Hz and active lengthening of 0.1 L0 at a rate of 2 L0/s. After lengthening, muscles were held at 1.1 L0 with stimulation for 100 milliseconds (Supplemental Figure 2A).

[3] = mdx EDG-5506 3 mg/kg vs mdx Control

Q: Which “binding, % of control” value (BRAF(V600E)) does the source give for `O=c1ccc(-c2cnc(OCC(F)(F)F)nc2)nn1Cc1cncc(F)c1` [EDG-5506] here?
A: 93 % of control

Q: What about the “membrane-impermeable dye (procion orange) uptake” value (mdx EDL muscle) of the same compound?
A: effectively reduced dye uptake

Q: What about the “binding, % of control” value (INSR) of the same compound?
A: 96 % of control

Q: And the “reduction of specific tension before injury” value (mdx lumbrical muscle; 0.3 μM)?
A: 15%

Q: What about the “strength drop with contraction” value (mdx lumbrical muscle; mdx lumbrical) of the same compound?
A: completely prevented

Q: What about the “clot formation (hypercontraction)” value (mdx lumbrical muscle; mdx lumbrical, after 12 contractions) of the same compound?
A: completely prevented clot formation

Q: What about the “concentration of maximal efficacy” value (mdx lumbrical muscle; mdx lumbrical, repeated tetanic contraction) of the same compound?
A: 0.3 µM

Q: And the “log2FoldChange Chrng” value ([1]; mdx EDG-5506 3 mg/kg vs WT)?
A: 0.42

Q: What about the “log2FoldChange Igfn1” value ([1]; mdx EDG-5506 3 mg/kg vs WT) of the same compound?
A: 2.931

Q: And the “log2FoldChange Katnal2” value ([1]; mdx EDG-5506 3 mg/kg vs WT)?
A: 1.899

Q: And the “log2FoldChange Myh8” value ([1]; mdx EDG-5506 3 mg/kg vs WT)?
A: 0.5674

Q: What about the “log2FoldChange Myl4” value ([1]; mdx EDG-5506 3 mg/kg vs WT) of the same compound?
A: 1.684

Q: What about the “log2FoldChange Chrng” value [1, 3] of the same compound?
A: -0.2866

Q: And the “log2FoldChange Igfn1” value [1, 3]?
A: -0.9018

Q: And the “log2FoldChange Katnal2” value [1, 3]?
A: -0.9377

Q: What about the “log2FoldChange Myh8” value [1, 3] of the same compound?
A: -0.538

Q: What about the “log2FoldChange Myl4” value [1, 3] of the same compound?
A: -1.31

Q: And the “skeletal muscle transcription profile” value ([1]; mdx mice, 8 weeks)?
A: returned the skeletal muscle transcription profile closer to that of WT mice

Q: What about the “binding, % of control” value (AXL) of the same compound?
A: 92 % of control

Q: And the “binding, % of control” value (p38-beta)?
A: 54 % of control

Q: And the “binding, % of control” value (RAF1)?
A: 100 % of control

Q: What about the “binding, % of control” value (MEK1) of the same compound?
A: 78 % of control

Q: What about the Emax (AR; read-out: Max Response (%) (Agonist)) of the same compound?
A: 0%

Q: And the Emax (AR; read-out: Max Response (%) (Antagonist))?
A: 0%

Q: What about the IC50 (mouse TA myofibrils) of the same compound?
A: 400 nM

Q: And the “Maximum Inhibition (%)” value (Human Soleus myofibrils; human soleus myofibrils)?
A: 79%

Q: And the IC50 (Human Soleus myofibrils; human soleus, 66% Type I, 33% IIa, IIx, at pCa 50)?
A: 1100 nM

Q: What about the “ex vivo force inhibition” value [2] of the same compound?
A: partial force inhibition
